Source: US20050239872A1, “1,5-distributed pyrrolid-2-one derivatives for use as ep4 receptor agonists in the teatment of eye diseases such as glaucoma” (priority 2002, published 2005)

Key:
[1] = test system: more than 80 receptors and enzymes; assay: PanLab screening against more than 80 receptors and enzymes; conditions: concentrations greater than 10 μM
[2] = Oral pharmacokinetics in rats; type: in vivo

## O=C1CC[C@H](/C=C/C(O)C(F)(F)c2ccccc2)N1CCCCCCc1nnn[nH]1 (stereo partly drawn) [Compound 7, (5R)-5[(1E)-4,4-difluoro-3-hydroxy-4-phenylbut-1-enyl]-1-[6-(1H-tetraazol-5-yl)hexyl]pyrrolidin-2-one]
[1]
  activity in PanLab screening: no significant activities
[2]
  terminal elimination half life: good
[2]; oral
  oral bioavailability: good
